This is an account of results in patent US12391680B2, “Compounds and compositions for the treatment of cystic fibrosis” (FONDAZIONE ISTITUTO ITALIANO DI TECNOLOGIA, priority 2019, dated 2025).

One test has as its target mutant CFTR (Homo sapiens, UniProt P13569). Briefly: Fluorescence assay for CFTR activity (halide-sensitive YFP, HS-YFP). The conditions noted are these: CFBE41o- and FRT cells with stable expression of mutant CFTR. The format is cell-based. The protocol: Mutant CFTR activity was determined with the functional assay based on the halide-sensitive yellow fluorescent protein, HS—YFP (Galietta et al., FEBS Lett 499:220-224, 2001). CFBE41o- and FRT cells with stable expression of mutant CFTR and HS—YFP were plated on clear-bottom 96-well black microplates (Code 3603, Corning Life Sciences) at a density of 50,000 cells/well and kept at 37° C. in 5% CO2 for 24 hours.
For the corrector assay, cells were treated for further 24 hours with test compounds, vehicle (DMSO), or the positive control VX-809. After treatment, the culture medium was removed and cells in each well were stimulated for 30 min at 37° C. with 60 μL PBS (containing 137 mM NaCl, 2.7 mM KCl, 8.1 mM Na2HPO4, 1.5 mM KH2PO4, 1 mM CaCl2, and 0.5 mM MgCl2) plus forskolin (20 μM) and genistein (50 μM).
For determination of potentiator activity on F508del-CFTR, cells were incubated for 24 hours at 27° C. to allow trafficking of the mutant protein to plasma membrane. Cells were then stimulated with for 30 min with PBS containing forskolin (20 μM) plus the compound to be tested at the desired concentration. For determination of potentiator activity on G551D-CFTR or G1349D-CFTR, cells were directly stimulated with forskolin plus test compound without previous incubation at low temperature. At the time of assay, microplates carrying CFBE41o- or FRT cells were transferred to microplate readers (BMG Labtech) equipped with high-quality excitation (HQ500/20×: 500±10 nm) and emission (HQ535/30M: 535±15 nm) filters for YFP (Chroma Technology). The assay consisted of a continuous 14 s fluorescence reading with 2 s before and 12 s after injection of an iodide-containing solution (165 μL of a modified PBS containing I^− instead of Cl^−; final I^− concentration in the well: 100 mM). Data were normalized to the initial background-subtracted fluorescence. Enhanced CFTR activity, induced by correctors and/or potentiators, results in accelerated I^− influx that in turn causes faster HS—YFP quenching (Pedemonte et al., Mol Pharmacol 68:1736-1746, 2005; Pedemonte et al., J Clin Invest 115:2564-2571, […]). To determine fluorescence quenching rate associated with I^− influx, the final 10 s of data for each well were fitted with an exponential function to extrapolate initial slope (dF/dt).
EC50 obtained are illustrated in Table 1 wherein+: EC50>2 μM; ++: 1.0 μM <EC50<2 μM; +++: EC50<1 μM.

Another test has as its target F508del-CFTR (Homo sapiens, UniProt P13569, DEL508-508). In words: Short-circuit current recordings on human bronchial epithelial cells from CF patients (F508del/F508del). Format: cell-based. Further details: Human bronchial epithelial (HBE) cells obtained from CF patients (F508del/F508del genotype); endogenous in cells; host or cells: primary human bronchial epithelial cells from CF patients, F508del/F508del. The conditions noted are these: HBE cells F508del/F508del, 24 hrs treatment, CPT-cAMP plus VX-770 minus CFTRinh-172. The protocol:
Human bronchial epithelial (HBE) cells obtained from CF patients (F508del/F508del genotype) were plated on Snapwell inserts (Code 3801, Corning Life Sciences) at a density of 500,000 cells per insert. Cells were cultured for two weeks in a differentiating medium whose compositions has been previously described (Scudieri et al., J Physiol 590:6141-6155, 2012). For the first week, the medium was kept on both apical and basolateral sides of inserts (submerged condition). For the second week, the apical medium was removed (air-liquid condition, ALC). To test the activity of correctors, cells were treated for 24 hrs with compounds dissolved in the basolateral medium. After treatment, Snapwell inserts carrying differentiated bronchial epithelia were mounted in a vertical chamber resembling an Ussing system with internal fluid circulation. Both apical and basolateral hemichambers were filled with 5 mL of a Krebs bicarbonate solution containing (in mM): 126 NaCl, 0.38 KH2PO4, 2.13 K2HPO4, 1 MgSO4, 1 CaCl2, 24 NaHCO3, and 10 glucose. Both sides were continuously bubbled with a gas mixture containing 5% CO2-95% air and the temperature of the solution was kept at 37° C. The transepithelial voltage was short-circuited with a voltage-clamp (DVC-1000, World Precision Instruments) connected to the apical and basolateral chambers via Ag/AgCl electrodes and agar bridges (1 M KCl in 1% agar). The offset between voltage electrodes and the fluid resistance were canceled before experiments. The short-circuit current was recorded with a PowerLab 4/25 (ADInstruments) analogical to digital converter connected to a Macintosh computer. […] The difference between the current measured with CPT-cAMP plus potentiator and the current remaining after CFTRinh-172 treatment (ΔICFTR) was taken as the parameter reflecting F508del-CFTR expression in the apical membrane.
Activities of selected compounds on HBE cells (expressed as ΔICFTR) are illustrated in Table 3 wherein+: ΔICFTR<2.0 μA; ++: 2.0 μA<ΔICFTR<3.0 μA; +++: ΔICFTR >3.0 μA.

Sequence of F508del-CFTR (P13569 with tags, fused parts or gaps DEL508-508): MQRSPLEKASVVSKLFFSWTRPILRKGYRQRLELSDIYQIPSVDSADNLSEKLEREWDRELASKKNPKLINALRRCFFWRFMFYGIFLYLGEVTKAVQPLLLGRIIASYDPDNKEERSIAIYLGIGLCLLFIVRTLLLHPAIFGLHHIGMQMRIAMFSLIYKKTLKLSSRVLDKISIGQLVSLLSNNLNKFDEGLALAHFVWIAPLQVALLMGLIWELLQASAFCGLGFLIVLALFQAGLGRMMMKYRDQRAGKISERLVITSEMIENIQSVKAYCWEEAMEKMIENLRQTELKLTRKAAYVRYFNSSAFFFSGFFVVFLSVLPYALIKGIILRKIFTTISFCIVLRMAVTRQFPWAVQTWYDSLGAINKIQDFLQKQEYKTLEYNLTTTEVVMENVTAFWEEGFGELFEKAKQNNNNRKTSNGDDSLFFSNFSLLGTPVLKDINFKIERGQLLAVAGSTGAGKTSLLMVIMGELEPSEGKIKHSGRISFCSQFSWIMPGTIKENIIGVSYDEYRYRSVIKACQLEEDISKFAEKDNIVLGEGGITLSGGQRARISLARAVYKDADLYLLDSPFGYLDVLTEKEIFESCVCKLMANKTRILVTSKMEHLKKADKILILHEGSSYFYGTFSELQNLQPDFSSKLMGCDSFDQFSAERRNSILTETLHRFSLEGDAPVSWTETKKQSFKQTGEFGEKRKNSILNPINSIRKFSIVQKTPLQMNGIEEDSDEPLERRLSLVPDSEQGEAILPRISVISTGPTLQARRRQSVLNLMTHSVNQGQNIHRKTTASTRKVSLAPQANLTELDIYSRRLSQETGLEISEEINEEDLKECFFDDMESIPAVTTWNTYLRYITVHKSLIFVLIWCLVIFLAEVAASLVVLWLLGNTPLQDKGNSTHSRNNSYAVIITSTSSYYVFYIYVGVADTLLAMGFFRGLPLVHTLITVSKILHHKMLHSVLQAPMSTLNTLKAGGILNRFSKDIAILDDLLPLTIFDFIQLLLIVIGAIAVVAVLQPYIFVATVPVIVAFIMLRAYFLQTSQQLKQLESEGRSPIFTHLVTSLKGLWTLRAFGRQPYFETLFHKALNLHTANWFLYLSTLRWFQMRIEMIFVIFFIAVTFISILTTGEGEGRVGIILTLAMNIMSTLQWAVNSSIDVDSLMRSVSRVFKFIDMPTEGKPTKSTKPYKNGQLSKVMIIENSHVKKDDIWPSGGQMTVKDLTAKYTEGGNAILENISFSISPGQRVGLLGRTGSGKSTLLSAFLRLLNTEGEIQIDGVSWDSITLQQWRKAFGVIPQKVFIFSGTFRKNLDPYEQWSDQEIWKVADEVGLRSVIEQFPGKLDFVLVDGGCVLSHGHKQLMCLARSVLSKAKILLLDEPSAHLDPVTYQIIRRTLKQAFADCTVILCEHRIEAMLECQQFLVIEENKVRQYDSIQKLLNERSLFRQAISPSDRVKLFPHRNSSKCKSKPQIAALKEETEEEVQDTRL
Sequence of mutant CFTR (P13569 with tags, fused parts or gaps DEL508-508): as above

Regarding `Cc1cc(S(=O)(=O)N2CCO[C@H](c3c(C(N)=O)sc4ccccc34)C2)ccc1F` (single isomer, unassigned) [compound 013], the EC50 (as a rule, the concentration that produces a half-maximal response) at mutant CFTR is more than 2 µM. Further, at F508del-CFTR, the “activity (ΔICFTR)” value was “++ (2.0 μA<ΔICFTR<3.0 μA)”. On to `Cc1nc2ccc(S(=O)(=O)N3CCO[C@H](c4c(C(N)=O)sc5ccccc45)C3)cc2o1` (single isomer, unassigned) [compound 071], for which the EC50 at mutant CFTR was less than 1 µM. For the same compound, on F508del-CFTR, the “activity (ΔICFTR)” value was “+++ (ΔICFTR >3.0 μA)”. In the same order, the values of `Cc1cc(S(=O)(=O)N2CCOC(c3c(C(N)=O)sc4ccccc34)C2)ccc1C(F)(F)F` (racemic) [compound 044, rac-3-[4-[3-methyl-4-(trifluoromethyl)phenyl]sulfonylmorpholin-2-yl]benzothiophene-2-carboxamide] are 1 to 2 µM and “++ (2.0 μA<ΔICFTR<3.0 μA)”. Consider `NC(=O)c1sc2ccccc2c1C1CN(S(=O)(=O)c2ccc([N+](=O)[O-])cc2)CCO1` (racemic) [compound 065, rac-3-[4-(4-nitrophenyl)sulfonylmorpholin-2-yl]benzothiophene-2-carboxamide], for which the EC50 on mutant CFTR is more than 2 µM.

Consider `COC(=O)c1cccc(S(=O)(=O)N2CCOC(c3c(C(N)=O)sc4ccccc34)C2)c1` (racemic) [compound 007, rac-methyl 3-[2-(2-carbamoylbenzothiophen-3-yl)morpholin-4-yl]sulfonylbenzoate], for which the EC50 at mutant CFTR was more than 2 µM. Same read-out and setting: with `CC(C)(C)OC(=O)N1CCC(S(=O)(=O)N2CCOC(c3c(C(N)=O)sc4ccccc34)C2)CC1` (racemic) [compound 064, rac-tert-butyl 4-[2-(2-carbamoylbenzothiophen-3-yl)morpholin-4-yl]sulfonylpiperidine-1-carboxylate] the figure was more than 2 µM; with `NC(=O)c1sc2ccccc2c1C1CN(S(=O)(=O)c2cccc(OC(F)(F)F)c2)CCO1` (racemic) [compound 049, rac-3-[4-[3-(trifluoromethoxy)phenyl]sulfonylmorpholin-2-yl]benzothiophene-2-carboxamide], more than 2 µM; with `NC(=O)c1sc2ccccc2c1C1CN(S(=O)(=O)c2ccc(F)c(F)c2)CCO1` (racemic) [compound 021, rac-3-[4-(3,4-difluorophenyl)sulfonylmorpholin-2-yl]benzothiophene-2-carboxamide], more than 2 µM. Same read-out and setting: with `O=C(NCCO)c1sc2ccccc2c1C1CN(S(=O)(=O)c2ccccc2)CCO1` (stereo not drawn) [compound 080, N-(2-hydroxyethyl)-3-[4-(phenylsulfonyl)-2-morpholinyl]-1-benzothiophene-2-carboxamide] the figure was more than 2 µM; with `Cc1cc(S(=O)(=O)N2CCOC(c3c(C(=O)NC(C)C)sc4ccccc34)C2)ccc1F` (racemic) [compound 031, rac-3-[4-(4-fluoro-3-methyl-phenyl)sulfonylmorpholin-2-yl]-N-isopropyl-benzothiophene-2-carboxamide], more than 2 µM; with `NC(=O)c1sc2ccccc2c1C1CN(S(=O)(=O)c2cccc(F)c2)CCO1` (racemic) [compound 020, rac-3-[4-(3-fluorophenyl)sulfonylmorpholin-2-yl]benzothiophene-2-carboxamide], 1 to 2 µM. Still for that read-out and setting: with `Cc1cccc(S(=O)(=O)N2CCOC(c3c(C(N)=O)sc4ccccc34)C2)c1` (racemic) [compound 012, rac-3-[4-(m-tolylsulfonyl)morpholin-2-yl]benzothiophene-2-carboxamide] the figure was 1 to 2 µM; with `COc1ccc(S(=O)(=O)N2CCOC(c3c(C(N)=O)sc4ccccc34)C2)cc1[N+](=O)[O-]` (racemic) [compound 047, rac-3-[4-(4-methoxy-3-nitro-phenyl)sulfonylmorpholin-2-yl]benzothiophene-2-carboxamide], more than 2 µM.

For the compound `CC(C)NC(=O)c1sc2ccccc2c1C1CN(S(=O)(=O)c2cnn(C)c2)CCO1` (stereo not drawn) [compound 076, 3-[4-(1-methyl-1H-pyrazole-4-sulfonyl)-morpholin-2-yl]-benzo[b]thiophene-2-carboxylic acid isopropylamide], on mutant CFTR, the EC50 is more than 2 µM. Regarding `NC(=O)c1sc2ccccc2c1C1CN(S(=O)(=O)c2ccccc2C(F)(F)F)CCO1` (racemic) [compound 066, rac-3-[4-[2-(trifluoromethyl)phenyl]sulfonylmorpholin-2-yl]benzothiophene-2-carboxamide], at mutant CFTR, the EC50 is more than 2 µM. Same read-out and setting: with `Cc1cc(C)c(S(=O)(=O)N2CCOC(c3c(C(N)=O)sc4ccccc34)C2)c(C)c1` (racemic) [compound 032, rac-3-[4-(2,4,6-trimethylphenyl)sulfonylmorpholin-2-yl]benzothiophene-2-carboxamide] the figure was more than 2 µM. On to `NC(=O)c1sc2ccccc2c1C1CN(S(=O)(=O)c2ccc3c(c2)OCCO3)CCO1` (racemic) [compound 018, rac-3-[(4-(2,3-dihydro-1,4-benzodioxin-6-ylsulfonyl)morpholin-2-yl]benzothiophene-2-carboxamide], for which the EC50 at mutant CFTR is less than 1 µM. Further, at F508del-CFTR, the “activity (ΔICFTR)” value is “++ (2.0 μA<ΔICFTR<3.0 μA)”.
